Tests used:
JAK2-JH1JH2 = JAK2-JH1JH2 (Homo sapiens (Human), UniProt O60674); assay: Enzymatic inhibition assay (RapidFire HTMS), JAK2; assay type: biochemical; conditions: 30 μM ATP, 40 μM substrate
Method in brief: (§1)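 Quenched with 0.5% TFA plus internal-standard peptide; phosphorylated product quantified by RapidFire C4 SPE–ESI-MS, 11-point 1:3 or 1:4 dilutions in duplicate.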

Tyk2-JH1JH2 = Tyk2-JH1JH2 (Homo sapiens (Human), UniProt P29597, C1142A/C936A); assay: Enzymatic inhibition assay (RapidFire HTMS), Tyk2; assay type: biochemical; conditions: 50 μM ATP, 200 μM substrate
Chain of Tyk2-JH1JH2 (P29597 580-1182 C936A/C1142A): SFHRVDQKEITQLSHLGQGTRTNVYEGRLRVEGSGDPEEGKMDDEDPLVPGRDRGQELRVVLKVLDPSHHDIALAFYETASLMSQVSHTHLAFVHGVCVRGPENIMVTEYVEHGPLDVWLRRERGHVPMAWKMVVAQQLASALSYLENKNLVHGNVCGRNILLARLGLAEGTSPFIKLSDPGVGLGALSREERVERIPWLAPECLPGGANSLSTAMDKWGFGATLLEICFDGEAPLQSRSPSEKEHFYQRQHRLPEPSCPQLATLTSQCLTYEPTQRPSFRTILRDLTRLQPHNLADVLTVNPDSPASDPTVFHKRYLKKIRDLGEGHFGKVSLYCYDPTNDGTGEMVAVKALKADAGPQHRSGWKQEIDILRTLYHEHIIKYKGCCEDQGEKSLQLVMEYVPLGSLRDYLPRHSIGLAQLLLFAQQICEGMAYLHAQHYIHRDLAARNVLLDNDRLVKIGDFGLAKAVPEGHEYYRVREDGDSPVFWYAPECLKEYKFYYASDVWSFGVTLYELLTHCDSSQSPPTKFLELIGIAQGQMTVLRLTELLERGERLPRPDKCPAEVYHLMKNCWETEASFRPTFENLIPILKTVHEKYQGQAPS
Method in brief: as §1

JAK3-JH1JH2 = JAK3-JH1JH2 (Homo sapiens (Human), UniProt P52333); assay: Enzymatic inhibition assay (RapidFire HTMS), JAK3; assay type: biochemical; conditions: 150 μM ATP, 40 μM substrate
Chain of JAK3-JH1JH2 (P52333 512-1124): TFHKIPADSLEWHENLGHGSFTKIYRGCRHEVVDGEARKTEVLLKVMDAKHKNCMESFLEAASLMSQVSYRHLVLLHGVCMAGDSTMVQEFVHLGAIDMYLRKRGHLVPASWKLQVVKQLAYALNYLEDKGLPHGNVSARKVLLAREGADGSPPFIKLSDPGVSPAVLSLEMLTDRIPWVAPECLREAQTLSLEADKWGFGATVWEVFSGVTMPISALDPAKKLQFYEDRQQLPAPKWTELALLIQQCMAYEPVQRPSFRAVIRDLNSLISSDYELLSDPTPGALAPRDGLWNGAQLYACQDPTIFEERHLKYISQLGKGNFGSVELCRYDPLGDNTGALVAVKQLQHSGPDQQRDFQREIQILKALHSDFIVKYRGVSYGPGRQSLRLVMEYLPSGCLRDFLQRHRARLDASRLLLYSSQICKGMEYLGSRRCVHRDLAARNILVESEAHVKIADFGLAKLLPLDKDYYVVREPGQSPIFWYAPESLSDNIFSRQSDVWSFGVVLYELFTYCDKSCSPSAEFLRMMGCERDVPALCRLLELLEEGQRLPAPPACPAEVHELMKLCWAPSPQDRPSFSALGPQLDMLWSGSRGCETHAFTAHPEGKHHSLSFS
Method in brief: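 JAK3 JH1JH2 reaction incubated 45 min at 25 °C, then quenched with 0.5% TFA containing 0.15 μM internal standard peptide. Phosphopeptide product measured by RapidFire C4 SPE–ESI MS (positive mode); inhibition from product decrease versus uninhibited enzyme, 11-point 1:3 or 1:4 dilutions in duplicate.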

[1] = In vivo intracolonic (i.c.) dosing: plasma and colon tissue concentrations (Protocol 3); parameters: species or system female C57BL/6 mice; conditions: mice; for concentration at 4 h: colon, read-out: Colon Concentration After i.c. Dosing, Mean
Excerpt: Plasma and colon concentration results were obtained by following Protocol 1 using venipuncture of dorsal metatarsal vein bleed for Compounds (B), (C), and Examples 10 and 74. Plasma and colon concentration results were obtained by following Protocol 2 using retro-orbital bleed for Compounds (A), and Examples 1, and 3-5 and Protocol 2 using venipuncture of the dorsal metatarsal vein for Examples 2, 22, 34, 38, 55, and 85. Plasma and colon concentration results were obtained by following Protocol 3 for Examples 1, 3 and 4. These protocols are described below under the heading In vivo Studies.
Intracolonic (IC) dose group: Following anesthesia with isoflurane by inhalation, three non-fasted female C57BL/6 mice were administered the compound intracolonically through a small incision in the abdominal wall using a syringe and needle at a dose of 5 mg/kg as a solution in 20% HPβCD at a dose volume of 1 mL/kg. Blood samples were collected at 0.5, 2, and 4 h post dose via retro-orbital bleed. Blood samples were collected into tubes containing anticoagulant (Heparin-Na) and placed on wet ice. The plasma fraction was separated by centrifugation and frozen at −20° C. for up to 4 h and −80° C. after 4 h unless analyzed shortly after sample collection. Colon samples were collected at 4 h post dose. From 2 cm below the cecum, a 4-cm sample of the colon was dissected, cut open on the longitudinal axis, and the solid contents removed by flushing with 2 mL of saline. The colon was further washed by putting it in 5 mL of saline and shaken for 5 seconds. The colon sample was then patted dry, weighed, and homogenized as 1 part tissue (g) to 4 parts HPLC grade water (mL). Concentrations of the compound in plasma and colon homogenate were determined using a qualified liquid chromatography-triple quadrupole mass spectrometry (LC-MS/MS) method. This protocol was used to evaluate IC dosing of the following test compounds: Examples 1, 3, and 4.

[2] = female, C57BL/6, mouse, other: intracolonic (i.c.), 5 mg/kg i.c.
[3] = female, C57BL/6, mouse, plasma, other: intracolonic (i.c.), 5 mg/kg i.c., read-out: Plasma Concentration After i.c. Dosing, Mean

Chain of JAK2-JH1JH2 (O60674 532-1132): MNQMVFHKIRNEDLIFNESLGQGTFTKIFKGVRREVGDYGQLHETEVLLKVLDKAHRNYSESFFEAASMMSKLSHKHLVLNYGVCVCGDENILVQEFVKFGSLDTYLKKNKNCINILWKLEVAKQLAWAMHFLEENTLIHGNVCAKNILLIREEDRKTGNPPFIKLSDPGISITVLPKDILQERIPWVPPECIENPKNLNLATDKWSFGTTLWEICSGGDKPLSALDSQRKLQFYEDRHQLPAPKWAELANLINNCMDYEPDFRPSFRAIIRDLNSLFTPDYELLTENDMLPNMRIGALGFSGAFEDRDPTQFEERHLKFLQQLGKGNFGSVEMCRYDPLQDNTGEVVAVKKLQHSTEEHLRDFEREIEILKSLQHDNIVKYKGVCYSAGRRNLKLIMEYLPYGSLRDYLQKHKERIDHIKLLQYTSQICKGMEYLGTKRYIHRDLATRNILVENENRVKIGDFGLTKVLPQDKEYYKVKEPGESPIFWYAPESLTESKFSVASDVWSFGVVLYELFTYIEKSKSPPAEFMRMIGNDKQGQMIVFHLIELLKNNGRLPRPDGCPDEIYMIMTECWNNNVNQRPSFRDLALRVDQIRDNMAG

Structure (SMILES)	IC50 (JAK2-JH1JH2) [nM]	IC50 (Tyk2-JH1JH2) [nM]	IC50 (JAK3-JH1JH2) [nM]	concentration at 4 h [1, 2] [ng/g]	concentration at 0.5 h [1, 3] [ng/mL]	systemic exposures after i.c. dosing [1]	concentration at 2 h ([1]; female, C57BL/6, mouse, plasma, other: intracolonic (i.c.), 5 mg/kg i.c., Time = 2 h, read-out: Plasma Concentration After i.c. Dosing, Mean) [ng/mL]
CC(C)(O)CNC(=O)Cc1nc2cnc3[nH]ccc3c2n1[C@H]1CC[C@H](CC#N)CC1 [Ex. 1, 2-(1-((1r,4r)-4-(Cyanomethyl)cyclohexyl)-1,6-dihydroimidazo[4,5-d]pyrrolo[2,3-b]pyridin-2-yl)-N-(2-hydroxy-2-methylpropyl)acetamide]	8.2	6.9	87.8	681	2.5	low systemic exposures	–
N#CC[C@H]1CC[C@H](n2c(CC(=O)NCC3CC3)nc3cnc4[nH]ccc4c32)CC1 [Ex. 3, 2-(1-((1r,4r)-4-(Cyanomethyl)cyclohexyl)-1,6-dihydroimidazo[4,5-d]pyrrolo[2,3-b]pyridin-2-yl)-N-(cyclopropylmethyl)acetamide]	–	–	–	228	1.5	low systemic exposures	–
N#CCCNC(=O)Cc1nc2cnc3[nH]ccc3c2n1[C@H]1CC[C@H](CC#N)CC1 [Ex. 4, N-(2-Cyanoethyl)-2-(1-((1r,4r)-4-(cyanomethyl)cyclohexyl)-1,6-dihydroimidazo[4,5-d]pyrrolo[2,3-b]pyridin-2-yl)acetamide]	–	–	–	26.1	3.8	low systemic exposures	2.5
CC(C)(C#N)CNC(=O)Cc1nc2cnc3[nH]ccc3c2n1[C@H]1CC[C@H](CC#N)CC1 [Ex. 22, N-(2-Cyano-2-methylpropyl)-2-(1-((1r,4r)-4-(cyanomethyl)cyclohexyl)-1,6-dihydroimidazo[4,5-d]pyrrolo[2,3-b]pyridin-2-yl)acetamide]	5.4	4.1	93.6	–	–	–	–
N#CC[C@H]1CC[C@H](n2c(CC(=O)NCC3(O)CCC3)nc3cnc4[nH]ccc4c32)CC1 [Ex. 34, 2-(1-((1r,4r)-4-(Cyanomethyl)cyclohexyl)-1,6-dihydroimidazo[4,5-d]pyrrolo[2,3-b]pyridin-2-yl)-N-((1-hydroxycyclobutyl)methyl)acetamide]	3.1	3.1	42.5	–	–	–	–
N#CCC12CCC(NC(=O)Cc3nc4cnc5[nH]ccc5c4n3[C@H]3CC[C@H](CC#N)CC3)(CC1)C2 [Ex. 55, N-(4-(Cyanomethyl)bicyclo[2.2.1]heptan-1-yl)-2-(1-((1r,4r)-4-(cyanomethyl)cyclohexyl)-1,6-dihydroimidazo[4,5-d]pyrrolo[2,3-b]pyridin-2-yl)acetamide]	2.9	4.7	59.6	–	–	–	–
N#CC[C@H]1CC[C@H](n2c(CC(=O)NCC3(O)CC3)nc3cnc4[nH]ccc4c32)CC1 [Ex. 85, 2-(1-((1r,4r)-4-(Cyanomethyl)cyclohexyl)-1,6-dihydroimidazo[4,5-d]pyrrolo[2,3-b]pyridin-2-yl)-N-((1-hydroxycyclopropyl)methyl)acetamide]	6.2	5.4	68.2	–	–	–	–
